Data published in patent US8765730B2 (Hoffmann-La Roche Inc, priority 2010, dated 2014).

Each molecule was assayed against T1, human GPBAR1 receptor (Homo sapiens, UniProt Q8TDU6) (assay: functional cAMP assay in CHO-dhfr(minus) cells expressing human GPBAR1 receptors). Conditions: human EC50, functional cAMP assay, 30 min at 30° C.
T1 construct: expressed in transfected cells
T1 sequence (Q8TDU6 1-330): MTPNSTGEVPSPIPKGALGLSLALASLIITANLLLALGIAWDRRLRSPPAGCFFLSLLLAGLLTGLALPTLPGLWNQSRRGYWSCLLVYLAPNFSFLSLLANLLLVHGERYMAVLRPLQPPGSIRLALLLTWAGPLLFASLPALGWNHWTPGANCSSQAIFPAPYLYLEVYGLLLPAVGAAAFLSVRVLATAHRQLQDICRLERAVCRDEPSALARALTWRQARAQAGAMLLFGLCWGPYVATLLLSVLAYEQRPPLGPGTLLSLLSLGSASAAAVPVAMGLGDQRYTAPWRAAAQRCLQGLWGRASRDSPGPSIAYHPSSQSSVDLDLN
Type: cell-based
Procedure, shortened: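 Agonist cAMP read-out: stable GPBAR1 CHO-dhfr− clone, 30 min compound exposure at 30° C following 30 min IBMX (1 mM) preincubation in Krebs Ringer bicarbonate. Time-resolved energy-transfer detection gives EC50; parental CHO cells serve as counter-screen.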
Molecule Cc1cc(Cl)ccc1C(C/C(=N\O)c1ccc(=O)n(C)c1)c1ccc(-c2ccc(C(=O)NCc3nnn[nH]3)cc2)cc1 (stereo not drawn) [Example 230, (E)-N-((1H-tetrazol-5-yl)methyl)-4′-(1-(4-chloro-2-methylphenyl)-3-(hydroxyimino)-3-(1-methyl-6-oxo-1,6-dihydropyridin-3-yl)propyl)biphenyl-4-carboxamide] has an EC50 of 18 nM. Cn1cc(/C(CC(c2ccc(C(=O)N[C@H]3CC[C@H](C(=O)O)CC3)c(F)c2)c2ccccc2Cl)=N/O)ccc1=O (stereo partly drawn) [Example 231, Trans-4-{4-[1-(2-Chloro-phenyl)-3-[(E)-hydroxyimino]-3-(1-methyl-6-oxo-1,6-dihydro-pyridin-3-yl)-propyl]-2-fluoro-benzoylamino}-cyclohexanecarboxylic acid] gave an EC50 of 283 nM. COCCNC(=O)c1ccc(C(C/C(=N\O)c2ccc(=O)n(C)c2)c2ccccc2Cl)cc1F (stereo not drawn) [Example 232, (E)-4-(1-(2-Chlorophenyl)-3-(hydroxyimino)-3-(1-methyl-6-oxo-1,6-dihydropyridin-3-yl)propyl)-2-fluoro-N-(2-methoxyethyl)benzamide] showed an EC50 of 137 nM. With Cn1cc(/C(CC(c2ccc(C(=O)NC3CC3)c(F)c2)c2ccccc2Cl)=N/O)ccc1=O (stereo not drawn) [Example 233, (E)-4-(1-(2-Chlorophenyl)-3-(hydroxyimino)-3-(1-methyl-6-oxo-1,6-dihydropyridin-3-yl)propyl)-N-cyclopropyl-2-fluorobenzamide] the EC50 was 186 nM. Cn1cc(/C(CC(c2ccc(C(=O)NCC(F)(F)F)c(F)c2)c2ccccc2Cl)=N/O)ccc1=O (stereo not drawn) [Example 234, (E)-4-(1-(2-Chlorophenyl)-3-(hydroxyimino)-3-(1-methyl-6-oxo-1,6-dihydropyridin-3-yl)propyl)-2-fluoro-N-(2,2,2-trifluoroethyl)benzamide] was tested, and the EC50 was 380 nM. In the case of Cc1ccccc1C(C/C(=N\O)c1ccc(=O)n(C)c1)c1ccc(Oc2cccc(C(=O)O)c2)cc1F (stereo not drawn) [Example 235, 3-{3-Fluoro-4-[3-[(E)-hydroxyimino]-3-(1-methyl-6-oxo-1,6-dihydro-pyridin-3-yl)-1-o-tolyl-propyl]-phenoxy}-benzoic acid], the EC50 is reported as 43 nM. Work on Cc1ccccc1C(C/C(=N\O)c1ccc(=O)n(C)c1)c1ccc(-c2ccccc2C(=O)O)cc1F (stereo not drawn) [Example 236, 3′-Fluoro-4′-[3-[(E)-hydroxyimino]-3-(1-methyl-6-oxo-1,6-dihydro-pyridin-3-yl)-1-o-tolyl-propyl]-biphenyl-2-carboxylic acid] yielded an EC50 of 1200 nM. For Cn1cc(/C(CC(c2ccc(Br)cc2)c2ccc(Cl)cc2F)=N/O)ccc1=O (stereo not drawn) [Example 237, 5-{3-(4-Bromo-phenyl)-3-(4-chloro-2-fluoro-phenyl)-1-[(E)-hydroxyimino]-propyl}-1-methyl-1H-pyridin-2-one], the EC50 was 25 nM. Cn1cc(/C(CC(c2ccc(-c3ccc(C(=O)O)cc3)cc2)c2ccc(Cl)cc2F)=N/O)ccc1=O (stereo not drawn) [Example 238, 4′-[1-(4-Chloro-2-fluoro-phenyl)-3-[(E)-hydroxyimino]-3-(1-methyl-6-oxo-1,6-dihydro-pyridin-3-yl)-propyl]-biphenyl-4-carboxylic acid] showed an EC50 of 23 nM. Cn1cc(/C(CC(c2ccc(Br)cc2)c2ccccc2F)=N/O)ccc1=O (stereo not drawn) [Example 243, (E)-5-(3-(4-Bromophenyl)-3-(2-fluorophenyl)-1-(hydroxyimino)propyl)-1-methylpyridin-2(1H)-one] gave an EC50 of 20 nM. Molecule Cn1cc(/C(CC(c2ccc(-c3ccc(C(=O)O)cc3)cc2)c2ccccc2F)=N/O)ccc1=O (stereo not drawn) [Example 244, (E)-4′-(1-(2-Fluorophenyl)-3-(hydroxyimino)-3-(1-methyl-6-oxo-1,6-dihydropyridin-3-yl)propyl)biphenyl-4-carboxylic acid] has an EC50 of 260 nM. CCNC(=O)c1ccc(C(C/C(=N\O)c2ccc(=O)n(C)c2)c2ccccc2Cl)cc1F (stereo not drawn) [Example 245, (E)-4-(1-(2-Chlorophenyl)-3-(hydroxyimino)-3-(1-methyl-6-oxo-1,6-dihydropyridin-3-yl)propyl)-N-ethyl-2-fluorobenzamide] was tested, and the EC50 was 250 nM.
